Measured values taken from article PMC3377386 (Pharmaceutical Research, 2011).
Counter-ions that a name gives are not always drawn. Like-named read-outs stand apart in the source and are kept apart here.

Columns and labels:
[1] = in seven days; a similarly done study (reference not given); cited from earlier work
[2] = hairless, guinea pig, in vivo
[3] = I.V. dose of 3 mg/kg; cited from earlier work
[4] = for Css: one 50-MN array
[5] = MN + Solaraze® + 16% NTX·HCl, n=4

In the case of O=C1CC[C@@]2(O)[C@H]3Cc4ccc(O)c5c4[C@@]2(CCN3CC2CC2)[C@H]1O5 [NTX·HCl, naltrexone HCl], the “fraction of the total drug applied delivered through the skin” value [1] is listed as “less than 5%”, the “total delivery of naltrexone” value [2] is listed as 2.65 mg and the “systemic dose AUC” value [3] is listed as 546 ng/mL/h. For the same molecule, the “delivered fraction of the dose” value ([4]; 2.65 mg of 80 mg NTX applied to the MN-treated area) was “less than 5%”, the Css ([4]; MN + 16% NTX·HCl (control, no Solaraze®), n=4) was 3.4 ± 1.3 ng/mL and the Tlag ([4]; MN + 16% NTX·HCl (no Solaraze®), n=4) was 1.8 ± 1.5 h. The “duration of increased plasma levels (Css)” value ([4]; MN + Solaraze® + 16% NTX·HCl gel, n=4) was “seven”, the Tlag [4, 5] was 21.5 ± 12.6 h and the Css [4, 5] was 7.0 ± 1.5 ng/mL. The “time at which NTX·HCl levels returned to baseline” value ([4]; control: one-time MN + 0.5 g 16% NTX·HCl, 6.7 cm^2, no Solaraze®) was ≤ 60 h and the “flux corresponding to the steady-state concentration” value ([4]; from Css of 7.0 ng/ml, 6.7 cm^2 patch) was “approximately 16.14 nmol/cm^2/h”.
